Values quoted from earlier work, collected in US20050070607A1, “N-acetylcysteine compositions and methods for the treatment and prevention of cysteine/glutathione deficiency in diseases and conditions” (priority 2003, published 2005).
Like-named read-outs stand apart in the source and are kept apart here.

How the values were obtained:
[1] = system: plaque formation; settings: 2 weeks, Bowles 1985[61]
[2] = system: HIV infected individuals
[3] = system: Sickle Cell Disease/Vaso-occlusive disease; settings: 2,400 mg daily, 12 months, Pace 2003[18]
[4] = system: Bronchitis
[5] = system: cochlea
[6] = system: otitis media with effusion; settings: instillation into one ear; recurrence, VT re-insertion, time until VT extrusion; 0.05 ml Mucomyst solution at 1, 3 and 7 days; n 75; 39 months; Ovesen 2000[53]
[7] = system: subjects with acetaminophen-induced fulminant hepatic failure; settings: late presentation; survival, cerebral edema, hypotension; IV 150 mg/kg for 15 min; 50 mg/kg for 4 h; 100 mg/kg over 16 h; n 50; 21 days; Keays 1991[2]
[8] = system: patients who have already developed fulminant hepatic failure; settings: observational study, one hundred patients [138]
[9] = system: Cystic Fibrosis (CF)
[10] = system: subjects classified as slow clearers; settings: .6 g oral daily, 60 days, Todisco 1985[38]
[11] = system: hemodialysis patients
[12] = system: premature infants with chronic lung disease; settings: intratracheal NAC 5%; total airway resistance, cyanotic spells; n 22; 24 hours; Bibi 1992[203]
[13] = system: Cardiac bypass

CC(=O)N[C@@H](CS)C(=O)O [NAC, N-acetylcysteine]
side effect reported for NAC treatment for inflammatory conditions (not found clinically significant [106]): mild to moderate anticoagulation
adverse responses to intravenous NAC administration (several reports [163,249-256]): anaphylactoid and allergic responses
reduction on plaque attributable to NAC ([1]; p < .001, 10% aqueous solution): 25.56% reduction on plaque attributable to
Beneficial effects ([1]; plaque indices, 10% aqueous solution of NAC buffered to pH 6.5, n 28): Beneficial
Beneficial effects ([2]; CD4 counts > 200/ul, plasma cysteine, rate of CD4 decline, 800 mg/day po, n 45, 4 months, Akerlund 1996[47]): Beneficial
Beneficial effects ([2]; beginning of antiretroviral therapy, hematocrit, CD4 cell count, 600 mg/day, n 20, 180 days, Spada 2002[227]): Beneficial
Beneficial effects ([2]; immune function, 0.6-3.6 g depending on GSH levels po, n 69, 7 months, Breitkreutz 2000[50]): Beneficial
adverse events, highest reported long-term NAC dosage ([2]; in vivo): No adverse events requiring physician intervention
Beneficial effects ([2]; whole blood GSH and T cell GSH, 3,200-8,000 mg/day po, n 81, 8 weeks, De Rosa 2000, Herzenberg 1997[48,49]): Beneficial
vaso-occlusive episodes ([3]; decreased from 0.03): occlusive episodes (0.03 to 0.006 episodes episodes per person-days
Beneficial effects ([3]; dense cell formation, glutathione levels, vaso-occlusive episodes, n 21): Beneficial
Beneficial effects ([4]; General Health Questionnaire score, mild chronic bronchitis, 1200 mg/day po, n 153, 22 weeks, Hansen 1994[34]): Beneficial
Beneficial effects ([4]; days incapacitated, 600 mg/day po, n 526, 6 months, Parr and Huitson 1987[31]): Beneficial
Beneficial effects ([4]; difficulty in expectoration and cough severity, 600 mg/day po, n 155, 3 months, Jackson 1984[30]): Beneficial
Beneficial effects ([4]; evening peak flows after NAC pre-treatment, 1200 mg/day po, n 37, 22 weeks, Evald 1989[33]): Beneficial
Beneficial effects ([4]; exacerbation rate, 400 mg/day po, n 259, 6 months, Boman 1983[29]): Beneficial
Beneficial effects ([4]; frequency of exacerbations, 600 mg/day, 3 days/wk, po, n 69, 6 months, Grassi and Morandini 1976[24]): Beneficial
Beneficial effects ([4]; sick-leave days caused by exacerbations, 600 mg/day po, n 116, 6 months, Rasmussen and Glennow 1988[32]): Beneficial
Beneficial effects ([4]; sputum consistency, expectoration, peak expiratory flow rate, 600 mg/day po, n 29, 4 weeks, Aylward 1980[25]): Beneficial
Beneficial effects ([4]; sputum thickness, expectoration, exacerbations, 400 mg/day po, n 744, 6 months, Grassi 1980, Ferrari 1980[27,28]): Beneficial
Beneficial effects ([4]; sputum volume and viscosity, acute and chronic bronchitis, 600 mg/day po, n 215, 10 days, Brocard 1980[26]): Beneficial
Hearing loss and cochlear damage from aminoglycoside antibiotics and cisplatin ([5]; animal models [245-247]): greatly reduced
permanent cochlear damage due to acute acoustic overexposure ([5]; animal models, systemic administration [246,248]): almost completely prevented
Beneficial effects [6]: Beneficial
Treatment effect [7]: Beneficial
survival [8]: significantly increased survival
Beneficial effects ([9]; CF and primary ciliary dyskinesia, lung function, 600 mg < 30 kg or 800 mg > 30 kg per day po, n 54, 3 months, Stafanger 1988[40]): Beneficial
Beneficial effects ([9]; air trapping and FEV1, NAC or Ambroxol 200 mg 3 times daily, n 36, 12 weeks, Ratjen 1985[274]): Beneficial
Beneficial effects ([10]; n 161): Beneficial
improvement in mucociliary clearance ([10]; slow clearers): a 35% improvement in mucusalary
RR, composite cardiovascular outcome ([11]; 134 chronic hemodialysis patients, p=0.03, [17]): 0.60
Beneficial effects ([11]; Homocysteine in hemodialysis, intravenous 5 g in 5% glucose solution, n 20, 1 session, Scholze 2004[273]): Beneficial
serum oxidized LDL values at the end of the study ([11]; chronic hemodialysis patients [17]): much lower
Plasma homocysteine level change ([11]; chronic oral 1200 mg BID, 4 weeks, placebo −8%, P = 0.07, Friedman 2003[276]): chronic oral NAC therapy (−19%) but did
Beneficial effects ([11]; composite cardiovascular end points, 600 mg bid, n 134, 1-24 months, median 14.5 months, Tepel 2003[17]): Beneficial
Plasma homocysteine level after hemodialysis ([11]; control group 58 +/− 22%, P < 0.01, intravenous 5 g, Scholze 2004[273]): homocysteine levels decreased to 12 +/− 7% of predialysis level (mean +
Beneficial effects ([11]; end-stage renal failure, plasma homocysteine, pulse pressure, endothelial function, 5 g in 5% glucose, n 20, Scholze 2004[273]): Beneficial
Beneficial effects [12]: Adverse
apoptosis induction by cardioplegic arrest in left ventricular cardiac myocytes ([13]; 100 mg/kg followed by infusion 20 mg/kg, n 36, Fischer 2004[270]): can effectively ne prevented by NAC.
Beneficial effects ([13]; oxidative burst response of peripheral neutrophils, 100 mg/kg bolus then 20 mg/kg continuous IV, n 12, 24 hours, Andersen 1995[16]): Beneficial
